Experimental data taken from article PMC8855072, “Trypanosoma cruzi Mitochondrial Peroxiredoxin Promotes Infectivity in Macrophages and Attenuates Nifurtimox Toxicity” (Frontiers in Cellular and Infection Microbiology, 2022).

How the values were obtained:
[1] = target: T1, recombinant MPX (rMPX), mitochondrial peroxiredoxin (Trypanosoma cruzi, UniProt O79469); assay: inhibition of peroxynitrite decomposition (CBA oxidation, fluorescence); SDS-PAGE of non-reducible adducts; assay type: biochemical; details: covalent; 100 µM CA, 1 h with pre-reduced MPX (5 µM), excess removed; SIN-1 as peroxynitrite source; holdase activity not inhibited
T1 construct: His-tagged, expressed in E. coli BL21, nickel column; pre-reduced with DTT, DTT removed
T1 sequence (O79469 entry or part of it): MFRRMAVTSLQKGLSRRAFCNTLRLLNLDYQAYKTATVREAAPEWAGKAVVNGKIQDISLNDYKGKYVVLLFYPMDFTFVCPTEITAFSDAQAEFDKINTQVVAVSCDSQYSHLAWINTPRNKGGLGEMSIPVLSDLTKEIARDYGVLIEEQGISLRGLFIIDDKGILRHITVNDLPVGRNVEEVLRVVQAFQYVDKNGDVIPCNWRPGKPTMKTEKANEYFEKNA

[2] = target: T1, recombinant MPX (rMPX), mitochondrial peroxiredoxin; assay: competition with peroxynitrite-dependent CBA oxidation (fluorescence); assay type: biochemical; details: mere turnover; pre-reduced MPX 5 µM, peroxynitrite flux ~3 µM/min from SIN-1, CBA 50 µM

With `[O-][n+]1c(CBr)c(CBr)[n+]([O-])c2ccccc21` [conoidin A] the “inhibition of peroxynitrite decomposition (CBA oxidation, fluorescence); SDS-PAG” value [1] was “CA reacts and crosslinks recombinant MPX”.

With `O=NOO` [peroxynitrite] the “competition with peroxynitrite-dependent CBA oxidation (fluorescence)” value [2] was “The decomposition of peroxynitrite by MPX reduces the oxidant generation of coumarin”.
